Measured values reported in article PMC12686966, “Da‐Bu‐Yin‐Wan and Qian‐Zheng‐San Alleviate Parkinson's Disease by Activating the Keap1/Nrf2/HO‐1 Pathway to Positively Regulate Oxidative Stress” (CNS Neuroscience & Therapeutics, 2025).
Structures can show the parent of a compound that is named as a salt. Where two headings read alike, the source gives them in different places.

Columns and labels:
[1] = Pharmacokinetic study of 10 major BYQZF components in plasma (UPLC-MS/MS); settings: for MRT last: MRT(0-t); for pharmacokinetics in MPTP + BYQZF group compared with BYQZF without MPTP group: p < 0.05
Method: (§1) 6‐week‐old male C57BL/6J mice (20 ± 2 g; n = 6 per group) were orally administered the herbal decoction (BYQZF) at a dose of 5 g crude drug/kg. The administration volume was 10 mL/kg, and the concentration of the drug solution was 0.5 g/mL. Plasma samples were collected on day 14 after 14 consecutive days of drug administration. […] The supernatant samples were collected after centrifugation (5000 rpm, 10 min) and stored at −80°C immediately until analysis.
(§2) Each 100 μL plasma aliquot obtained at predetermined intervals was supplemented with 5 μL of internal standard solution (IS, 1 μg/mL) and 10 μL enzymatic hydrolysis cocktail (β‐glucuronidase/sulfatase mixture: 200 U/2 U enzymatic activity). The mixture underwent vortex mixing followed by 1‐h enzymatic digestion at physiological temperature (37°C). Subsequent protein precipitation was achieved through methanol addition (300 μL) with vigorous shaking. After phase separation by centrifugation (5000 rpm, 5 min), the organic supernatant was carefully decanted and subjected to nitrogen‐stream evaporation until completely dry. The residue was then reconstituted in 100 μL of mobile phase consisting of aqueous 0.1% FA‐ACN (v:v = 95:5) using ultrasonic‐assisted dissolution. Prior to UPLC‐MS/MS analysis, the final solution underwent high‐speed clarification centrifugation (13,000 rpm, 10 min) to remove particulate matter. The drug concentration‐time profiles were constructed, and pharmacokinetic parameters were analyzed using DAS 3.2.8 software.

SH-SY5Y cells = test: Annexin V-PE apoptosis detection (flow cytometry) in MPP+-treated SH-SY5Y cells; type: cell-based, human; settings: Control siRNA; 1 mM MPP+ alone or followed by 4 μg/mL BYQZF 48 h; control cells 1.65%
Method: The experiment used the human neuroblastoma SH‐SY5Y cell line to construct a stable transfected cell line. Cells were grown in a 1:1 MEM/F12 medium blend with added 15% fetal bovine serum for nutritional support. To avoid bacterial contamination, 500 IU/mL of penicillin and 500 μg/mL of streptomycin were incorporated. Cells were cultured at 37°C with 5% CO2 to maintain a pH of 7.2–7.4. The cell passage ratio was 1:2 to 1:4, and medium was replaced every 48–72 h to maintain the cells in the logarithmic growth phase. Routine testing confirmed that the cells were free from mycoplasma, bacterial, and fungal contamination. For cell freezing, a cryopreservation solution consisting of 60% base medium, 30% FBS, and 10% DMSO was used, and cells were stored in liquid nitrogen for long‐term preservation. The human Nrf2 knockdown plasmid, crafted by GeneChem, was used to transfect SH‐SY5Y cells seeded at a concentration of 100,000 cells per milliliter, utilizing the optimal amount of Lipofectamine 3000 (Invitrogen) in accordance with the protocol. 48 h subsequent to transfection, cells were exposed to 1 mM MPP^+ in the culture environment, and subsequently treated with 4 μg/mL BYQZF for another 48 h.

[2] = mouse, in vivo, po
Method: as §1, §2

[3] = set-up: method as in PMID 28163115; settings: cited from earlier work
Nrf2/HO-1 pathway = test system: Nrf2/HO-1 pathway; set-up: method as in PMID 27535021; settings: hydrogen peroxide-induced oxidative stress ref 37; cited from earlier work
Nrf2/GPX4 pathway = test system: Nrf2/GPX4 pathway; set-up: method as in PMID 39631720, PMID 27632381; settings: PD models ref 40, 41; cited from earlier work
[4] = male, C57BL/6J, mouse, plasma, po, 5 g/kg, AUC(0-t), plasma, oral BYQZF 5 g crude drug/kg, group BYQZF (without MPTP), n=6
[5] = male, C57BL/6J, mouse, plasma, po, 5 g/kg, AUC(0-t), plasma, oral BYQZF 5 g crude drug/kg, group MPTP+BYQZF (PD model mice), n=6
[6] = male, C57BL/6J, mouse, plasma, po, 5 g/kg, Cmax, plasma, oral BYQZF 5 g crude drug/kg, group BYQZF (without MPTP), n=6
[7] = male, C57BL/6J, mouse, plasma, po, 5 g/kg, Cmax, plasma, oral BYQZF 5 g crude drug/kg, group MPTP+BYQZF (PD model mice), n=6
[8] = male, C57BL/6J, mouse, plasma, po, 5 g/kg, plasma, oral BYQZF 5 g crude drug/kg, group BYQZF (without MPTP), n=6
[9] = male, C57BL/6J, mouse, plasma, po, 5 g/kg, plasma, oral BYQZF 5 g crude drug/kg, group MPTP+BYQZF (PD model mice), n=6
[10] = plasma, oral BYQZF 5 g crude drug/kg, group BYQZF (without MPTP), n=6
[11] = plasma, oral BYQZF 5 g crude drug/kg, group MPTP+BYQZF (PD model mice), n=6

O=c1c(O)c(-c2ccccc2)oc2ccccc12 [3-Hydroxyflavone]
AUC(0-t) [1, 4]: 0.401 ± 0.0765 ng·h/mL
AUC(0-t) [1, 5]: 0.341 ± 0.0517 ng·h/mL
Cmax [1, 6]: 0.105 ± 0.0146 ng/mL
Cmax [1, 7]: 0.0291 ± 0.00788 ng/mL
MRT last [1, 8]: 5.17 ± 3.67 h
MRT last [1, 9]: 13 ± 1.72 h
pharmacokinetics in MPTP + BYQZF group compared with BYQZF without MPTP group ([1]; oral BYQZF 5 g crude drug/kg): significantly different

O=c1c(O[C@@H]2O[C@H](CO)[C@H](O)[C@H](O)[C@H]2O)c(-c2ccc(O)c(O)c2)oc2cc(O)cc(O)c12 [Hyperin]
pharmacokinetics in MPTP + BYQZF group compared with BYQZF without MPTP group ([1]; oral BYQZF 5 g crude drug/kg): significantly different
AUC(0-t) [1, 10]: 0.24678 ± 0.01186 ng·h/mL
Cmax [1, 10]: 0.03885 ± 0.01016 ng/mL
MRT(0-t) [1, 10]: 10.94 ± 0.64 h
AUC(0-t) [1, 11]: 0.17287 ± 0.02918 ng·h/mL
Cmax [1, 11]: 0.01989 ± 0.00355 ng/mL
MRT(0-t) [1, 11]: 12.22 ± 2.29 h

C[n+]1ccc(-c2ccccc2)cc1 [MPP^+, 1‐Methyl‐4‐phenylpyridinium]
proportion of apoptotic cells (SH-SY5Y cells): 7.95%

C[C@H]1[C@H]2[C@H](O[C@@H]3O[C@H](CO)[C@@H](O)[C@H](O)[C@H]3O)OC=C(C(=O)O)[C@H]2C[C@@H]1O [8-Epiloganic acid]
pharmacokinetics in MPTP + BYQZF group compared with BYQZF without MPTP group [2]: significantly different

N[C@@H](CCC(=O)O)C(=O)O [L-Glutamic acid]
Cmax ([1]; male, C57BL/6J, mouse, in vivo, po, 5 g/kg): 0.0514 ± 0.00766 ng/mL
Cmax ([1]; male, C57BL/6J, mouse, plasma, po, 5 g/kg): 0.0146 ± 0.00047 ng/mL
AUC(0-t) [1, 4]: 0.102 ± 0.0119 ng·h/mL
AUC(0-t) [1, 5]: 0.0832 ± 0.0112 ng·h/mL
MRT last [1, 8]: 4.47 ± 1.61 h
MRT last [1, 9]: 4.55 ± 1.19 h

O=c1c2cc(O)c(O)cc2oc2cc(O)c([C@@H]3O[C@H](CO)[C@@H](O)[C@H](O)[C@H]3O)c(O)c12 [Mangiferol]
pharmacokinetics in MPTP + BYQZF group compared with BYQZF without MPTP group [2]: significantly different

OCC1=C[C@@H](O)[C@]2(O[C@@H]3O[C@H](CO)[C@@H](O)[C@H](O)[C@H]3O[C@@H]3O[C@H](CO)[C@@H](O)[C@H](O)[C@H]3O)C=CO[C@@H](O[C@@H]3O[C@H](CO)[C@@H](O)[C@H](O)[C@H]3O)[C@H]12 [Rehmannioside D]
spontaneous oxidation of endogenous dopamine [3]: inhibit

O=c1cc[nH]c(=O)[nH]1 [Uracil]
AUC(0-t) [1, 4]: 0.413 ± 0.0753 ng·h/mL
AUC(0-t) [1, 5]: 0.166 ± 0.0638 ng·h/mL
Cmax [1, 6]: 0.23 ± 0.0219 ng/mL
Cmax [1, 7]: 0.0395 ± 0.00762 ng/mL
MRT last [1, 8]: 2.01 ± 1.68 h
MRT last [1, 9]: 2.89 ± 0.17 h

COc1ccc2cc3[n+](cc2c1OC)CCc1cc2c(cc1-3)OCO2 [Berberine hydrochloride]
Nrf2/HO-1 pathway (Nrf2/HO-1 pathway): can activate

C[C@@H]1O[C@@H](O[C@@H]2[C@@H](O)[C@H](OCCc3ccc(O)c(O)c3)O[C@H](CO)[C@H]2OC(=O)/C=C/c2ccc(O)c(O)c2)[C@H](O)[C@H](O)[C@H]1O [Acteoside]
Nrf2/GPX4 pathway (Nrf2/GPX4 pathway): activate

Manninotriose
pharmacokinetics in MPTP + BYQZF group compared with BYQZF without MPTP group [2]: significantly different

C[C@@H]1O[C@@H](O[C@@H]2[C@@H](O)[C@H](OCCc3ccc(O)c(O)c3)O[C@H](COC(=O)/C=C/c3ccc(O)c(O)c3)[C@H]2O)[C@H](O)[C@H](O)[C@H]1O [Isoacteoside]
AUC(0-t) [1, 4]: 2.8 ± 0.138 ng·h/mL
AUC(0-t) [1, 5]: 2.18 ± 0.31 ng·h/mL
Cmax [1, 6]: 0.248 ± 0.0148 ng/mL
Cmax [1, 7]: 0.185 ± 0.00514 ng/mL
MRT last [1, 8]: 7.9 ± 0.47 h
MRT last [1, 9]: 8.87 ± 0.83 h
pharmacokinetics in MPTP + BYQZF group compared with BYQZF without MPTP group ([1]; oral BYQZF 5 g crude drug/kg): significantly different

O[C@H]1[C@H](O)[C@@H](O)[C@H](O)[C@@H](O)[C@H]1O [Inositol]
AUC(0-t) [1, 4]: 0.32 ± 0.0658 ng·h/mL
AUC(0-t) [1, 5]: 0.0615 ± 0.0127 ng·h/mL
Cmax [1, 6]: 0.0582 ± 0.0147 ng/mL
Cmax [1, 7]: 0.0239 ± 0.00194 ng/mL
MRT last [1, 8]: 2.81 ± 0.27 h
MRT last [1, 9]: 11.2 ± 1.23 h

N[C@@H](CC(=O)N[C@@H](CC(=O)O)C(=O)O)C(=O)O [L-beta-aspartyl-L-aspartic acid]
pharmacokinetics in MPTP + BYQZF group compared with BYQZF without MPTP group ([1]; oral BYQZF 5 g crude drug/kg): significantly different
AUC(0-t) [1, 10]: 0.01864 ± 0.00096 ng·h/mL
Cmax [1, 10]: 0.02274 ± 0.00024 ng/mL
MRT(0-t) [1, 10]: 2.02 ± 2.07 h
AUC(0-t) [1, 11]: 0.01424 ± 0.0026 ng·h/mL
Cmax [1, 11]: 0.00887 ± 0.00191 ng/mL
MRT(0-t) [1, 11]: 2.13 ± 1.32 h
